Measured values taken from the supplement of paper PMC10307832.

How the values were obtained:
Experiment in all cases: relative viability (nuclei count vs DMSO), 5 days (fraction); higher = more cells survive
EMC-BAC-2 = test system: EMC-BAC-2
Procedure, shortened: (§1)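 The day after seeding in 1536-well plates, lung cancer cell lines were treated by pin tool with a single drug, or with a fixed anchor-drug dose together with five library-drug doses (not always all listed) in √10 steps. After 5 days, a combined fix-and-stain solution (final 0.05% Triton X-100, 1% formaldehyde, 1 ug/ml Hoechst) was added. Nuclei counted on 4× images gave relative viability as treated counts over vehicle counts, reported as the median of duplicate plates.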

EPLC-272H = test system: EPLC-272H
Procedure, shortened: as §1

H3255 = test system: H3255
Procedure, shortened: as §1

HCC-44 = test system: HCC-44
Procedure, shortened: as §1

HCC-827 = test system: HCC-827
Procedure, shortened: as §1

LCLC-103H = test system: LCLC-103H
Procedure, shortened: as §1

LCLC-97TM1 = test system: LCLC-97TM1
Procedure, shortened: as §1

NCI-H1355 = test system: NCI-H1355
Procedure, shortened: as §1

NCI-H1395 = test system: NCI-H1395
Procedure, shortened: as §1

NCI-H1563 = test system: NCI-H1563
Procedure, shortened: as §1

NCI-H1651 = test system: NCI-H1651
Procedure, shortened: as §1

NCI-H1793 = details: first compound 0.005 µM
Procedure, shortened: as §1

CC1(C)CCC(c2ccc(Cl)cc2)=C(CN2CCN(c3ccc(C(=O)NS(=O)(=O)c4ccc(N[C@H](CCN5CCOCC5)CSc5ccccc5)c(S(=O)(=O)C(F)(F)F)c4)cc3)CC2)C1 [Navitoclax] + Cc1nc(NC(=O)N2CCC[C@H]2C(N)=O)sc1-c1ccnc(C(C)(C)C(F)(F)F)c1 [Alpelisib] (partner 2 µM)
relative viability (EMC-BAC-2; first compound 0.005 µM): 0.733
relative viability (EMC-BAC-2; first compound 0.01581 µM): 0.764
relative viability (EMC-BAC-2; first compound 0.05 µM): 0.745
relative viability (EMC-BAC-2; first compound 0.1581 µM): 0.69
relative viability (EMC-BAC-2; first compound 0.5 µM): 0.759
relative viability (EPLC-272H; first compound 0.005 µM): 0.877
relative viability (EPLC-272H; first compound 0.1581 µM): 0.933
relative viability (EPLC-272H; first compound 0.5 µM): 0.821
relative viability (H3255; first compound 0.005 µM): 0.635
relative viability (H3255; first compound 0.01581 µM): 0.745
relative viability (H3255; first compound 0.05 µM): 0.6
relative viability (H3255; first compound 0.1581 µM): 0.744
relative viability (H3255; first compound 0.5 µM): 0.732
relative viability (HCC-44; first compound 0.005 µM): 0.736
relative viability (HCC-44; first compound 0.01581 µM): 0.805
relative viability (HCC-44; first compound 0.05 µM): 0.849
relative viability (HCC-44; first compound 0.1581 µM): 0.795
relative viability (HCC-44; first compound 0.5 µM): 0.694
relative viability (HCC-827; first compound 0.005 µM): 1.07
relative viability (HCC-827; first compound 0.01581 µM): 1.1
relative viability (HCC-827; first compound 0.05 µM): 0.766
relative viability (HCC-827; first compound 0.1581 µM): 1.02
relative viability (HCC-827; first compound 0.5 µM): 1.01
relative viability (LCLC-103H; first compound 0.005 µM): 0.948
relative viability (LCLC-103H; first compound 0.01581 µM): 1.13
relative viability (LCLC-103H; first compound 0.05 µM): 0.97
relative viability (LCLC-103H; first compound 0.1581 µM): 0.919
relative viability (LCLC-103H; first compound 0.5 µM): 0.963
relative viability (LCLC-97TM1; first compound 0.005 µM): 0.335
relative viability (LCLC-97TM1; first compound 0.01581 µM): 0.328
relative viability (LCLC-97TM1; first compound 0.05 µM): 0.241
relative viability (LCLC-97TM1; first compound 0.1581 µM): 0.228
relative viability (LCLC-97TM1; first compound 0.5 µM): 0.243
relative viability (NCI-H1355; first compound 0.005 µM): 0.833
relative viability (NCI-H1355; first compound 0.01581 µM): 0.934
relative viability (NCI-H1355; first compound 0.05 µM): 0.846
relative viability (NCI-H1355; first compound 0.1581 µM): 0.74
relative viability (NCI-H1355; first compound 0.5 µM): 0.782
relative viability (NCI-H1395; first compound 0.005 µM): 1.05
relative viability (NCI-H1395; first compound 0.01581 µM): 1.26
relative viability (NCI-H1395; first compound 0.05 µM): 1.2
relative viability (NCI-H1395; first compound 0.1581 µM): 1.19
relative viability (NCI-H1395; first compound 0.5 µM): 1.12
relative viability (NCI-H1563; first compound 0.005 µM): 0.947
relative viability (NCI-H1563; first compound 0.01581 µM): 1.03
relative viability (NCI-H1563; first compound 0.05 µM): 0.989
relative viability (NCI-H1563; first compound 0.1581 µM): 0.981
relative viability (NCI-H1563; first compound 0.5 µM): 1.13
relative viability (NCI-H1651; first compound 0.005 µM): 0.929
relative viability (NCI-H1651; first compound 0.01581 µM): 0.899
relative viability (NCI-H1651; first compound 0.1581 µM): 1
relative viability (NCI-H1651; first compound 0.5 µM): 0.946
relative viability (NCI-H1793): 0.772
